# In US20240335383A1, “NANOPARTICULATE FORMULATION” (NewImmune II, LLC, priority 2021, published 2024):
# Read-outs that look alike come from different tables or passages of the source.
# Key:
# [1] = design: species or system human
# Description: The efficacy of the presently disclosed compositions and nanoparticles allows for the administration of relatively low doses.
# [2] = Britton-Robinson buffer, FIG. 1
# [3] = imiquimod; cited from earlier work
# T effector memory cells = conditions: Fiorenza et al, 2012; cited from earlier work
# [4] = rats, single subcutaneous dose; cited from earlier work
# [5] = pregnant female rabbits, intravenous, gestational Days 6-18; cited from earlier work
# [6] = EMA toxicology review of Aldara; cited from earlier work
# [7] = mice, dermal exposure; cited from earlier work
# [8] = mice, rats, and monkeys; adverse effects limited to the central nervous system; cited from earlier work
# [9] = rabbits, doses of 2000 and 5000 mg/kg under occlusion; cited from earlier work
# [10] = rats, oral, repeated dose up to 6 months; cited from earlier work
# [11] = monkeys, oral, repeated dose up to 6 months; cited from earlier work
# [12] = tested on: mesothelioma, renal cell carcinoma and 4T1 breast cancer; conditions: mouse models, cited from earlier work
# [13] = injected subcutaneously into patients; cited from earlier work
# [14] = 30 mg subcutaneous dose, healthy human volunteers; cited from earlier work
# IL-2 stimulated B cells = conditions: Glaum et al, 2009; cited from earlier work
molecule,measurement,setting,value
2-hydroxypropyl-β-cyclodextrin [HP-β-CD],Safety Factor (excipient dose from approved drug vs excipient dose from NP),[1],11-fold
"CC(C)Cn1cnc2c(N)nc3ccccc3c21 [imiquimod, 1-(2-methylpropyl)imidazo[4,5-c]quinolin-4-amine]",pH of maximum solubility in aqueous solution,[2],≤ 2
same,aqueous solubility above pH 6,[2]; above pH 6,sparingly soluble
same,in vivo half-life,[3],approximately 3 hours
same,cytotoxic activity of T effector memory cells,T effector memory cells,enhances the cytotoxic activity
same,subcutaneous lethal dose,[4],20 mg/kg
same,dose with no treatment related effects on embryofetal toxicity or teratogenicity,[5],2 mg/kg/day
same,effect on fertility,[6],did not affect fertility
same,teratogenicity and genotoxicity,[6],neither teratogenic nor genotoxic
same,carcinogenicity: incidence of tumors or non-neoplastic lesions,[7],no increase in the incidence of tumors or non-neoplastic lesions
same,single dose toxicity,[8],high degree of safety
same,dermal toxicity,[9],no deaths and no signs of toxicity other than mild transient erythema at the application site
same,no observed adverse effect level (NOAEL),[10],3 mg/kg
same,no observed adverse effect level (NOAEL),[11],3 mg/kg
same,overt signs of toxicity (such as weight loss and ruffled fur),[12]; 50 μL injections of 50 μg/mL imiquimod,not associated with overt signs of toxicity
same,increase in survival time at maximum inhibition of tumor growth,"[12]; intratumoral, 50 μL injections of 50 μg/mL imiquimod (p<0.05)",> 50%
same,growth of tumor,[12]; only locally (intratumoral) delivered,consistently and significantly retarded the growth of tumor
same,systemic exposure,[13],minimal systemic exposure
same,tolerability of subcutaneous dose,[14],well tolerated
CCOCc1nc2c(N)nc3ccccc3c2n1CC(C)(C)O [resiquimod],IgM and IgG production by IL-2 stimulated B cells,IL-2 stimulated B cells,synergistically enhance IgM and IgG production
polyethylene glycol 4000 [PEG 4000],Safety Factor (excipient dose from approved drug vs excipient dose from NP),[1],2-fold
